Key:
[1] = in vivo
Procedure: Particle size reduction for TTI-101 by micronization and nano-milling provided poor bioavailability (e.g., 10-20 times lower bioavailability than a solution of TTI-101). Hot melt extrusion (HME) was used and the resulting dispersions were evaluated using DSC miscibility, DSC extrudability and rheology studies. Polymer systems tried include: Soluplus; Soluplus+Kolliphor RH40; Soluplus+Vitamin E TPGS; and PVPVA64+Kolliphor RH40.

Solubility of TTI-101 = format: physicochemical
Text: The compound of Formula (I) (also referred to as TTI-101) is highly insoluble (“brick dust”). […] Furthermore, the compound of Formula (I) has a crystalline structure with high crystal-lattice energy, contributing to rapid precipitation or crystallization of the compound from solution. Its low solubility and high crystallinity have contributed to various difficulties in preparing formulations that are suitable for administration in human subjects. Current formulations are liquid formulations delivered via capsules. For example, a formulation of the compound of formula (I) dissolved in 60:40 Labrasol®/PEG400 and encapsulated into a hard gelatin capsule (unit dose: 36 mg), while showing encouraging results in 3 dose cohorts, was prevented from advancing to a fourth patient cohort (25.6 mg/kg/day as 12.8 mg/kg twice daily (BID) doses) because of an unacceptably high pill burden. For example, a 70 kg subject in Cohort 4 would require […] per day split into BID doses. […]

COc1ccc(S(=O)(=O)Nc2cc(-c3c(O)ccc4ccccc34)c(O)c3ccccc23)cc1 [TTI-101]
bioavailability lower than a solution of TTI-101 [1]: 10-20 times
solubility in aqueous solutions (Solubility of TTI-101): insoluble
solubility in most solvents (Solubility of TTI-101): relatively low solubility
